Source: the RepoRT retention time repository

Experiment: Thermo Scientific Acclaim RSLC 120 C18, 100 × 2.1 mm, 2.2 µm, 30 °C, 0.2 to 0.48 mL/min, estimated dead time 1.1 min; A: 90% water + 10% methanol + 5 mM ammonium acetate; B: methanol + 5 mM ammonium acetate; gradient (min/%B) 0.1/1 3/39 14/99.9 16/99.9
Settings: stereoisomer not certain

Row | SMILES | LC retention time
1 | CNCC(c1ccc(OC)cc1)C1(O)CCCCC1 (stereo not given) | 6.12 min
2 | CCc1cccc(C)c1N(C(=O)C(=O)O)C(C)COC (stereo not given) | 8.29 min
3 | O=[N+]([O-])c1cc(C2CCCCC2)c(O)c([N+](=O)[O-])c1 | 9.19 min
4 | CCCc1nn(C)c2c(=O)[nH]c(-c3cc(S(=O)(=O)N4CCN(C)CC4)ccc3OCC)nc12 | 9.5 min
5 | CCC1OC(=O)C(C)C(OC2CC(C)(OC)C(O)C(C)O2)C(C)C(OC2OC(C)CC(N(C)C)C2O)C(C)(O)CC(C)C(=NOCOCCOC)C(C)C(O)C1(C)O (stereo not given) | 11.5 min
6 | COC(=O)c1sccc1S(=O)(=O)NC(=O)Nc1nc(C)nc(OC)n1 | 4.52 min
7 | CC1=C(C(=O)Nc2ccccc2)S(=O)(=O)CCO1 | 5.57 min
8 | CCNC1CC(C)S(=O)(=O)c2sc(S(N)(=O)=O)cc21 (stereo not given) | 4.63 min
9 | CNC(=O)CSP(=S)(OC)OC | 5.25 min
10 | Oc1ccccc1-c1ccccc1 | 9.09 min
11 | CCOC1OC(C(=O)O)C(O)C(O)C1O (stereo not given) | 1.35 min
12 | CC(=O)Nc1cc(S(=O)(=O)O)cc2cc(S(=O)(=O)O)c(N=Nc3ccccc3)c(O)c12 | 4.56 min
13 | CC(=O)Nc1nnc(S(N)(=O)=O)s1 | 3.24 min
14 | O=C(O)c1cc(-c2ccccc2)nc2ccccc12 | 5.89 min
15 | COCC(C)N(C(=O)C(=O)O)c1c(C)csc1C (stereo not given) | 6.97 min
16 | CC(C)(C)c1cc(C(C)(C)C)c(O)c(C(C)(C)C)c1 | 14.6 min
17 | CC12C=CC(=O)C=C1CCC1C2C(O)CC2(C)C1CCC2(O)C(=O)CO (stereo not given) | 8.92 min
18 | CCOP(=O)(NC(C)C)Oc1ccc(S(C)(=O)=O)c(C)c1 (stereo not given) | 7.17 min
19 | CC(C)C1(C)N=C(c2ncccc2C(=O)O)NC1=O (stereo not given) | 3.1 min
20 | CCN(CC)C(=O)Nc1ccc(OCC(O)CNC(C)(C)C)c(C(C)=O)c1 (stereo not given) | 6.76 min
21 | COc1ccc(C(=O)c2ccccc2O)cc1 | 12.2 min
22 | CC12C=CC(=O)C=C1CCC1C2C(=O)CC2(C)C1CCC2(O)C(=O)CO (stereo not given) | 8.31 min
23 | CCCCc1c(C)nc(NCC)[nH]c1=O | 8.39 min
24 | CCCCc1ncc(C=C(Cc2cccs2)C(=O)O)n1Cc1ccc(C(=O)O)cc1 | 6.51 min
25 | CCC1(CCC(C)C)C(=O)NC(=O)NC1=O | 7.9 min
26 | Cc1ccc(S(N)(=O)=O)cc1 | 4.79 min
27 | Nc1ncn[nH]1 | 1.67 min

Row | SMILES | LC retention time
28 | COC(=O)NC(=S)Nc1ccccc1NC(=S)NC(=O)OC | 6.88 min
29 | COCCCOc1cc(CC(CC(N)C(O)CC(C(=O)NCC(C)(C)C(N)=O)C(C)C)C(C)C)ccc1OC (stereo not given) | 10.9 min
30 | CCCCc1oc2ccc(NS(C)(=O)=O)cc2c1C(=O)c1ccc(OCCCN(CCCC)CCCC)cc1 | 13.3 min
31 | CCC1OC(=O)C(C)C(OC2CC(C)(OC)C(O)C(C)O2)C(C)C(OC2OC(C)CC(NC)C2O)C(C)(OC)CC(C)C(=O)C(C)C(O)C1(C)O (stereo not given) | 11.3 min
32 | Cc1ccc2n[nH]nc2c1 | 6.56 min
33 | CCOP(=S)(OCC)Oc1cnccn1 | 8.03 min
34 | CC1(C)SC2C(NC(=O)C(N)c3ccccc3)C(=O)N2C1C(=O)O (stereo not given) | 4.46 min
35 | COCc1cnc(C2=NC(C)(C(C)C)C(=O)N2)c(C(=O)O)c1 (stereo not given) | 3.74 min
36 | Cc1onc(-c2ccccc2)c1-c1ccc(S(N)(=O)=O)cc1 | 7.46 min
37 | C=C(C)C1Cc2c(ccc3c2OC2COc4cc(OC)c(OC)cc4C2C3=O)O1 (stereo not given) | 10.4 min
38 | CCCCC1C(=O)N(c2ccccc2)N(c2ccc(O)cc2)C1=O (stereo not given) | 7.73 min
39 | CNC(=N[N+](=O)[O-])NCC1CCOC1 (stereo not given) | 3.59 min
40 | CN(C)C(=O)Nc1ccccc1 | 5.11 min
41 | O=C(O)c1ccccc1O | 3.58 min
42 | CCCCC1C(=O)N(c2ccccc2)N(c2ccccc2)C1=O | 7.46 min
43 | O=C(c1ccc(OCCN2CCCCC2)cc1)c1c(-c2ccc(O)cc2)sc2cc(O)ccc12 | 8.86 min
44 | Cc1ccc(C)c(OCCCC(C)(C)C(=O)O)c1 | 10.9 min
45 | CC(=O)Nc1ccc(S(=O)(=O)Nc2cc(C)on2)cc1 | 4.33 min
46 | COc1cc(OC)nc(NC(=O)NS(=O)(=O)c2cc(NC=O)ccc2C(=O)N(C)C)n1 | 5.62 min
47 | CC(C)(C)NCC(O)c1cc(O)cc(O)c1 (stereo not given) | 3.48 min
48 | COC(=O)Nc1cccc(OC(=O)Nc2cccc(C)c2)c1 | 8.72 min
49 | COc1cc(NS(=O)(=O)c2ccc(NC(C)=O)cc2)nc(OC)n1 | 5.09 min
50 | CCCN(CCC)S(=O)(=O)c1ccc(C(=O)O)cc1 | 6.46 min
51 | CCOc1cc(CC(=O)NC(CC(C)C)c2ccccc2N2CCCCC2)ccc1C(=O)O (stereo not given) | 12.8 min
52 | Nc1ccc(O)c(C(=O)O)c1 | 2.04 min
53 | CC1CC2(C)C(CCC3C4CCC(O)C4(C)CCC32)CC1=O (stereo not given) | 14.4 min
54 | COC(=O)c1ccccc1S(=O)(=O)NC(=O)Nc1nc(C)nc(OC)n1 | 4.51 min

Row | SMILES | LC retention time
55 | CC(C)(C)c1n[nH]c(=O)n(N)c1=O | 6.67 min
56 | Cc1occc1C(=O)Nc1ccccc1 | 7.54 min
57 | NC(=O)N=C(N)N | 1.73 min
58 | CC1(c2ccc(Oc3ccccc3)cc2)OC(=O)N(Nc2ccccc2)C1=O (stereo not given) | 11 min
59 | CC[N+]([O-])(CC)CC(=O)Nc1c(C)cccc1C | 6.56 min
60 | CC(NC(=O)C(N)CC(=O)O)C(=O)NC1C(C)(C)SC1(C)C (stereo not given) | 6.06 min
61 | CC(C)c1nc(CN(C)C(=O)NC(C(=O)NC(Cc2ccccc2)CC(O)C(Cc2ccccc2)NC(=O)OCc2cncs2)C(C)C)cs1 (stereo not given) | 12.5 min
62 | CCCCCC(C)N (stereo not given) | 4.41 min
63 | O=C1NC(=O)C2CC=CCC12 (stereo not given) | 4.36 min
64 | CCOc1ccc(NC(=O)OC(C)C)cc1OCC | 9.01 min
65 | CC(Cn1cnc2c(N)ncnc21)OCP(=O)(O)O (stereo not given) | 3.18 min
66 | CCOC(=O)CSc1nc(C(C)(C)C)nn1C(=O)N(C)C | 6.37 min
67 | CS(=O)(=O)c1ccc(C(=O)C2C(=O)CCCC2=O)c([N+](=O)[O-])c1 | 2.13 min
68 | C=C1CC23CC1(O)CCC2C12C=CC(O)C(C)(C(=O)O1)C2C3C(=O)O (stereo not given) | 4.42 min
69 | CNC(=O)N(C)c1nnc(C(C)(C)C)s1 | 7.21 min
70 | O=c1[nH]c2c(c(=O)n1C1CCCCC1)CCC2 | 8.23 min
71 | CC(C)CC(CN)CC(=O)O (stereo not given) | 4.04 min
72 | CCOP(=S)(OCC)SCS(=O)(=O)C(C)(C)C | 8.98 min
73 | CN(C)S(=O)(=O)Nc1ccccc1 | 7.14 min
74 | O=c1[nH]cnc2[nH]ncc12 | 3.04 min
75 | NC(=O)c1ncn(C2OC(CO)C(O)C2O)n1 (stereo not given) | 1.46 min
76 | O=S(=O)(O)NC1CCCCC1 | 4.12 min
77 | CC(C)CC(C)Nc1ccc(Nc2ccccc2)cc1 (stereo not given) | 11.8 min
78 | C=CCC1(C(C)CCC)C(=O)NC(=O)NC1=O (stereo not given) | 8.39 min
79 | CC(C)c1ccc(NC(=O)N(C)C)cc1 | 8.29 min
80 | CCC(CC)OC1C=C(C(=O)O)CC(N)C1NC(C)=O (stereo not given) | 4.92 min
81 | CC(C)NCC(O)COc1ccc(CC(=O)O)cc1 (stereo not given) | 3.58 min

Row | SMILES | LC retention time
82 | CSc1nnc(C(C)(C)C)c(=O)n1N | 7.04 min
83 | O=S(=O)(O)c1ccc2ccccc2c1 | 5.42 min
84 | COP(=S)(OC)Oc1ccc(S(N)(=O)=O)cc1 | 6.16 min
85 | CCCCCCC(C)(C)c1ccc(C2CCCC(O)C2)c(O)c1 (stereo not given) | 13.2 min
86 | CC(C)(c1ccc(O)cc1)c1ccc(O)cc1 | 8.49 min
87 | O=C(O)C(c1ccccc1)C1CCCCN1 (stereo not given) | 5.27 min
88 | CC12CCC(O)CC1CCC1C2CCC2(C)C1CCC2(C)O (stereo not given) | 14 min
89 | CNC(=C[N+](=O)[O-])NCCSCc1ccc(C[N+](C)(C)[O-])o1 | 3.98 min
90 | NC(=O)N1c2ccccc2C2OC2c2ccccc21 (stereo not given) | 8.47 min
91 | CC(C)(C)c1cc([N+](=O)[O-])cc([N+](=O)[O-])c1O | 8.13 min
92 | CC(C(=O)O)c1ccc(N2Cc3ccccc3C2=O)cc1 (stereo not given) | 6.23 min
93 | CCCCCC(=O)c1ccc(O)cc1O | 10.6 min
94 | CC12CCC3C(CCC4=C(O)C(=O)CCC43C)C1CCC2=O (stereo not given) | 6.61 min
95 | CCN1CCCC1CNC(=O)c1cc(S(N)(=O)=O)ccc1OC (stereo not given) | 4.42 min
96 | COC(=O)C(C)=COP(=S)(OC)OC | 5.12 min
97 | CCOS(=O)(=O)O | 1.52 min
98 | CC(C)(C)NCC(O)c1ccc(O)c(CO)c1 (stereo not given) | 4.06 min
99 | CC1=CC(=O)NS(=O)(=O)O1 | 2.34 min
100 | On1nnc2ccccc21 | 3.69 min
101 | CCC(C)C1(CC)C(=O)NC(=O)NC1=O (stereo not given) | 6.83 min
102 | O=C(O)Cc1cccc2ccccc12 | 5.7 min
103 | COc1ccc2cc(CCC(C)=O)ccc2c1 | 8.54 min
104 | CC1(C)CC1C(=O)NC(=CCCCCSCC(N)C(=O)O)C(=O)O (stereo not given) | 4.91 min
105 | CC(=O)NCCCS(=O)(=O)O | 1.46 min
